Experiments:
Format in all cases: in vivo, BALB/c mice
[1] = system: SLIGRL-induced pruritus (agonist for the protease activated receptor 2); assay: SLIGRL-induced pruritus, number of scratching actions (MicroAct); conditions: mice; 1 μM and 10 μM injected subcutaneously together with 20 μg SLIGRL; counted for 1 hour; p<0.05 versus SLIGRL-treated group; FIG. 4
Description: Six-week-old, specific-pathogen-free male BALB/c mice were purchased from Orient Bio Korea Inc. (Gapyeong, Gyeonggi-do, Korea) and housed in a laminar flow cabinet. They were provided with standard solid chows ad libitum. At the onset of the test, the mice were 7-8 weeks old. All animal care and use were performed in accordance with the protocol of the Institutional Animal Care and Use Committee of the Chonbuk National University Medical School. Isoflavone-based compounds genistein, daidzein, glycitein and equol were purchased from Sigma. They were dissolved in DMSO and diluted with distilled water. […] Histamine, chloroquine and DNCB were also purchased from Sigma. Pruritus was induced with SLIGRL. Specifically, 20 μg of SLIGRL was dissolved in 0.1 mL of physiological saline and injected subcutaneously to induce pruritus. Pruritus was evaluated using MicroAct (Neuroscience, Inc., Tokyo, Japan) according to the method established by the company. The mouse was anesthetized and a magnet piece was inserted into the foot skin of the left hind leg. The mouse was put in a chamber surrounded by a coil and the number of scratching actions was recorded by a computer based on the electrical field generated by the scratching. The experimental conditions of the MicroAct were set as follows. Threshold p-p limit, 0.125 V; threshold minimum duration, 0.2 s; maximum amplitude range, 0.5 V; minimum amplitude range, 0.05 V; maximum frequency, 20 Hz; minimum frequency, 5 Hz. Recording was made only for 3 or more consecutive scratching actions. All the experiments were performed for at least 3 times and 2-3 mice were used per each group. Statistical data were represented by means and standard deviations. Statistical comparison was conducted by one-way ANOVA and the Fisher test. Significant difference between the groups was determined by the unpaired Student's t-test. The significant level of the p-value was less than 0.05. In order to measure the effect of inhibiting pruritus induced by SLIGRL, which is an agonist for the protease activated receptor 2, of genistein, daidzein, glycitein and equol, 20 μg of SLIGRL was dissolved in 0.1 mL of physiological saline and injected subcutaneously to induce pruritus. After injecting each of genistein, daidzein, glycitein and equol at 1 μM and 10 μM together with the SLIGRL, the number of scratching actions was counted for 1 hour.

[2] = system: histamine-induced pruritus; assay: Histamine-induced pruritus, number of scratching actions (MicroAct); conditions: mice; 1 μM and 10 μM injected subcutaneously together with 100 μg histamine; counted for 1 hour; p<0.01 versus histamine-treated group; FIG. 1
Description: (§1) Six-week-old, specific-pathogen-free male BALB/c mice were purchased from Orient Bio Korea Inc. (Gapyeong, Gyeonggi-do, Korea) and housed in a laminar flow cabinet. They were provided with standard solid chows ad libitum. At the onset of the test, the mice were 7-8 weeks old. All animal care and use were performed in accordance with the protocol of the Institutional Animal Care and Use Committee of the Chonbuk National University Medical School. Isoflavone-based compounds genistein, daidzein, glycitein and equol were purchased from Sigma. They were dissolved in DMSO and diluted with distilled water. […] Histamine, chloroquine and DNCB were also purchased from Sigma. Pruritus was induced by subcutaneously injecting histamine and chloroquine to the mice. Specifically, 0.1 mL of 2 mg/mL histamine and 4 mg/mL chloroquine were injected respectively. Pruritus was evaluated using MicroAct (Neuroscience, Inc., Tokyo, Japan) according to the method established by the company. The mouse was anesthetized and a magnet piece was inserted into the foot skin of the left hind leg. The mouse was put in a chamber surrounded by a coil and the number of scratching actions was recorded by a computer based on the electrical field generated by the scratching. The experimental conditions of the MicroAct were set as follows. Threshold p-p limit, 0.125 V; threshold minimum duration, 0.2 s; maximum amplitude range, 0.5 V; minimum amplitude range, 0.05 V; maximum frequency, 20 Hz; minimum frequency, 5 Hz. Recording was made only for 3 or more consecutive scratching actions. All the experiments were performed for at least 3 times and 2-3 mice were used per each group. Statistical data were represented by means and standard deviations. Statistical comparison was conducted by one-way ANOVA and the Fisher test. Significant difference between the groups was determined by the unpaired Student's t-test. The significant level of the p-value was less than 0.05. In order to measure the effect of inhibiting histamine-induced pruritus of genistein, daidzein, glycitein and equol, 100 μg of histamine was dissolved in 0.1 mL of physiological saline and injected subcutaneously to induce pruritus. After injecting each of genistein, daidzein, glycitein and equol at 1 μM and 10 μM together with the histamine, the number of scratching actions was counted for 1 hour.

TSLP-induced pruritus = assay: TSLP-induced pruritus, number of scratching actions (MicroAct); conditions: mice; 1 μM and 10 μM injected subcutaneously together with 0.67 μg TSLP; counted for 1 hour; p<0.05 versus TSLP-treated group; FIG. 5
Description: Six-week-old, specific-pathogen-free male BALB/c mice were purchased from Orient Bio Korea Inc. (Gapyeong, Gyeonggi-do, Korea) and housed in a laminar flow cabinet. They were provided with standard solid chows ad libitum. At the onset of the test, the mice were 7-8 weeks old. All animal care and use were performed in accordance with the protocol of the Institutional Animal Care and Use Committee of the Chonbuk National University Medical School. Isoflavone-based compounds genistein, daidzein, glycitein and equol were purchased from Sigma. They were dissolved in DMSO and diluted with distilled water. […] Histamine, chloroquine and DNCB were also purchased from Sigma. Pruritus was induced with TSLP. 0.67 μg of TSLP was dissolved in 0.1 mL of physiological saline and injected subcutaneously to induce pruritus. Pruritus was evaluated using MicroAct (Neuroscience, Inc., Tokyo, Japan) according to the method established by the company. The mouse was anesthetized and a magnet piece was inserted into the foot skin of the left hind leg. The mouse was put in a chamber surrounded by a coil and the number of scratching actions was recorded by a computer based on the electrical field generated by the scratching. The experimental conditions of the MicroAct were set as follows. Threshold p-p limit, 0.125 V; threshold minimum duration, 0.2 s; maximum amplitude range, 0.5 V; minimum amplitude range, 0.05 V; maximum frequency, 20 Hz; minimum frequency, 5 Hz. Recording was made only for 3 or more consecutive scratching actions. All the experiments were performed for at least 3 times and 2-3 mice were used per each group. Statistical data were represented by means and standard deviations. Statistical comparison was conducted by one-way ANOVA and the Fisher test. Significant difference between the groups was determined by the unpaired Student's t-test. The significant level of the p-value was less than 0.05. In order to measure the effect of inhibiting thymic stromal lymphopoietin (TSLP)-induced pruritus of genistein, daidzein, glycitein and equol, 0.67 μg of TSLP solution dissolved in 0.1 mL of physiological saline and injected subcutaneously to induce pruritus. After injecting each of genistein, daidzein, glycitein and equol at 1 μM and 10 μM together with the TSLP, the number of scratching actions was counted for 1 hour.

DNCB-induced pruritus = assay: DNCB-induced pruritus, number of scratching actions (MicroAct); conditions: DNCB-sensitized mice; 1 μM or 10 μM applied on the right ear with DNCB; counted for 1 hour; p<0.01 versus DNCB-treated group; FIG. 3
Description: Six-week-old, specific-pathogen-free male BALB/c mice were purchased from Orient Bio Korea Inc. (Gapyeong, Gyeonggi-do, Korea) and housed in a laminar flow cabinet. They were provided with standard solid chows ad libitum. At the onset of the test, the mice were 7-8 weeks old. All animal care and use were performed in accordance with the protocol of the Institutional Animal Care and Use Committee of the Chonbuk National University Medical School. Isoflavone-based compounds genistein, daidzein, glycitein and equol were purchased from Sigma. They were dissolved in DMSO and diluted with distilled water. […] Histamine, chloroquine and DNCB were also purchased from Sigma. Pruritus was induced with DNCB. Specifically, after removing hair from the right ear of the mouse, 20 μL of 1% DNCB dissolved in a mixture of olive oil and ethanol (1:4) was applied for sensitization. 10 μL of 0.5% DNCB was applied on the same ear 7 days later (Exp. Dermatol., 2002, 11:285-291). Pruritus was evaluated using MicroAct (Neuroscience, Inc., Tokyo, Japan) according to the method established by the company. The mouse was anesthetized and a magnet piece was inserted into the foot skin of the left hind leg. The mouse was put in a chamber surrounded by a coil and the number of scratching actions was recorded by a computer based on the electrical field generated by the scratching. The experimental conditions of the MicroAct were set as follows. Threshold p-p limit, 0.125 V; threshold minimum duration, 0.2 s; maximum amplitude range, 0.5 V; minimum amplitude range, 0.05 V; maximum frequency, 20 Hz; minimum frequency, 5 Hz. Recording was made only for 3 or more consecutive scratching actions. All the experiments were performed for at least 3 times and 2-3 mice were used per each group. Statistical data were represented by means and standard deviations. Statistical comparison was conducted by one-way ANOVA and the Fisher test. Significant difference between the groups was determined by the unpaired Student's t-test. The significant level of the p-value was less than 0.05. In order to measure the effect of inhibiting DNCB-induced pruritus of genistein, daidzein, glycitein and equol, 20 μL of a 1% DNCB solution was applied on the right ear of the mouse for 7 days for sensitization. 10 μL of 0.5% DNCB was applied on the same ear 7 days later, 1 μM or 10 μM genistein, daidzein, glycitein or equol and 1% DNCB dissolved in physiological saline was applied on the right ear (physiological saline was applied for a negative control group) and the number of scratching actions was counted for 1 hour.

[3] = system: chloroquine-induced pruritus; assay: Chloroquine-induced pruritus, number of scratching actions (MicroAct); conditions: mice; 1 μM and 10 μM injected subcutaneously together with 200 μg chloroquine; counted for 1 hour; p<0.01 versus chloroquine-treated group; FIG. 2
Description: as §1, with “inhibiting chloroquine-induced” for “inhibiting histamine-induced”, “equol, 200” for “equol, 100”, “of chloroquine” for “of histamine”, “the chloroquine,” for “the histamine,”

SMILES | Effect of inhibiting SLIGRL-induced pruritus (number of scratching actions) [1] | Effect of inhibiting histamine-induced pruritus (number of scratching actions) [2] | Effect of inhibiting TSLP-induced pruritus (number of scratching actions) (TSLP-induced pruritus) | Effect of inhibiting DNCB-induced pruritus (number of scratching actions) (DNCB-induced pruritus) | Effect of inhibiting chloroquine-induced pruritus (number of scratching actions) [3]
O=c1c(-c2ccc(O)cc2)coc2cc(O)ccc12 [daidzein] | significantly inhibited | significantly inhibited | significantly inhibited | significantly inhibited | significantly inhibited
COc1cc2c(=O)c(-c3ccc(O)cc3)coc2cc1O [glycitein] | did not inhibit | did not inhibit | did not inhibit | did not inhibit | did not inhibit
O=c1c(-c2ccc(O)cc2)coc2cc(O)cc(O)c12 [Genistein, genistein] | significantly inhibited | significantly inhibited | significantly inhibited | significantly inhibited | significantly inhibited
Oc1ccc([C@H]2COc3cc(O)ccc3C2)cc1 [equol] | did not inhibit | did not inhibit | did not inhibit | did not inhibit | did not inhibit

— US20210308096A1, “COMPOSITION FOR PREVENTING OR TREATING PRURITUS” (INDUSTRIAL COOPERATION FOUNDATION CHONBUK NATIONAL …, priority 2017, published 2021)
